Experimental data reported in patent US20060204502A1 (priority 2004, published 2006).
≈ marks a conversion by molar mass, not a printed value. Where two headings read alike, the source gives them in different places.

What was measured:
[1] = tested on: Human Lung Carcinoma SKMES; experiment: MTT growth inhibitory assay, SKMES; type: cell-based; settings: SKMES cells, A3 antagonist at 0.5 μg/ml
Procedure: (§1) Interpretation of the EF is dependent upon the concentrations of A3 receptor antagonist tested. For example, when using very low concentrations of A3 receptor antagonist, any EF above 1.0 is synergistic if the A3 receptor antagonist concentration is below the threshold of cell growth inhibition.
(§2) The cells are sub-cultured twice a week.
(§3) Vinblastine sulfate salt was obtained from Sigma Chemical Co., (V1377). Irinotecan was diluted with culture medium. All other agents were dissolved in 100% DMSO at appropriate concentrations. The DMSO stock solutions were diluted 100-fold with growth medium so that the final DMSO concentration was 1%.

[2] = molecular target: T1, rat A1 Adenosine receptor (Rattus norvegicus, UniProt P25099); experiment: Rat A1 adenosine receptor binding, [3H]-DPCPX, rat brain membranes; settings: read-out: rA1 (Ki)
T1 construct: from tissue; host or cells: whole brain (minus brainstem, striatum and cerebellum) of male Wistar rats
T1 sequence (P25099 1-326): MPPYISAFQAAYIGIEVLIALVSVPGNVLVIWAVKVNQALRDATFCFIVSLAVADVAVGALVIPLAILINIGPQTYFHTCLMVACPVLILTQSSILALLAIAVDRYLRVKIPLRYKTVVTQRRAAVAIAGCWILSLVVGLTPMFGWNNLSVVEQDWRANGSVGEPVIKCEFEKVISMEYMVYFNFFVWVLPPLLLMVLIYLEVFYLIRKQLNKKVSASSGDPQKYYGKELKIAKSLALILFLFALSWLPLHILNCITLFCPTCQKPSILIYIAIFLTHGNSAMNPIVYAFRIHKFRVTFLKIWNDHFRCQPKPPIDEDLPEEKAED
Procedure: Membrane preparations: Male Wistar rats (200-250 g) can be decapitated and the whole brain (minug brainstem, striatum and cerebellum) dissected on ice. The brain tissues can be disrupted in a Polytron (setting 5) in 20 vols of 50 mM Tris HCl, pH 7.4. […] After 30 min incubation at 37° C., the membranes can be centrifuged and the pellets stored at −70° C. Striatal tissues can be homogenized with a Polytron in 25 vol of 50 mM Tris HCl buffer containing 10 mM MgCl2 pH 7.4. […] After 30 min incubation at 37° C., membranes can be centrifuged and the pellet stored at −70° C. […] Incubation times are typically 120 min at 25° C.
Radioligand binding assays may comprise the following: Binding of [^3H]-SCH 58261 (5-amino-7-(2-phenylethyl)-2-(2-furyl)-pyrazolo[4,3-e]-1,2,4-triazolo[1,5-c]pyrimidine) to rat striatal membranes (100 ug of protein/assay) can be performed according to methods described in Zocchi et al., 1996, J. Pharm. and Exper. […] In competition studies, at least 6-8 different concentrations of examined compounds should be used. […] Incubation time is typically 60 min at 25° C. Bound and free radioactivity can be separated by filtering the assay mixture through Whatman GF/B glass-fiber filters using a Brandel cell harvester (Gaithersburg, Md., USA). […] The filter bound radioactivity can be measured, for example, by liquid scintillation spectrometry. […]

[3] = molecular target: T2, rat A2A Adenosine receptor (Rattus norvegicus, UniProt P30543); experiment: Rat A2A adenosine receptor binding, [3H]-SCH 58261, rat striatal membranes; settings: read-out: rA2A (Ki)
T2 construct: from tissue; host or cells: rat striatum (male Wistar rats)
T2 sequence (P30543 whole entry): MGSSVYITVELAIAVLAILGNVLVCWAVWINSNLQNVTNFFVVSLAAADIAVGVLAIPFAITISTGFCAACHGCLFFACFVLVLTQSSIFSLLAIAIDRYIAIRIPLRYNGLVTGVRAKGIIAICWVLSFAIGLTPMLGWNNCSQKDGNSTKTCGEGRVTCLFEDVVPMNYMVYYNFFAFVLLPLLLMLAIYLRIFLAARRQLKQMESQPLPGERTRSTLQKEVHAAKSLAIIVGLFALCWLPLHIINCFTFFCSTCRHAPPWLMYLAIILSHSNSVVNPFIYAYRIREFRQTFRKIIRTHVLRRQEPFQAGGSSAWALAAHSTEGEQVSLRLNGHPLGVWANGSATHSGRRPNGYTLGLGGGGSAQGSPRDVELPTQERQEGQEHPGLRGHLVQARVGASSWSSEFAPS

[4] = tested on: Human Pancreatic Cancer Panc-1; experiment: MTT growth inhibitory assay, Panc-1; type: cell-based; settings: Panc-1 cells, A3 antagonist at 0.5 μg/ml
Procedure: as §1, §2, §3

[5] = tested on: Human Colon Carcinoma HT29; experiment: MTT growth inhibitory assay, HT29; type: cell-based; settings: HT29 cells
Procedure: as §1, §2, §3

Human Melanoma A375 = experiment: MTT growth inhibitory assay, A375; settings: for Enhancement Factor: A375 cells; for IC50: Homo sapiens, A-375, read-out: IC50 (μg/ml) of anti-neoplastic agent used jointly with A3 antagonist, A375 cells
Procedure: An exemplary assay may comprise the following steps: Cells (1000-1500 cells/well) are seeded in a 96-well micro culture plate in a total volume of 100 μl/well. After overnight incubation in a humidified incubator at 37° C. with 5% CO2-95% air, chemotherapeutic drug solutions diluted with culture medium at various concentrations are added in the amount of 100 μl to each well. The plates are placed in a humidified incubator at 37° C. with 5% CO2-95% air for 7-10 days. The plates are then centrifuged briefly and 100 μl of the growth medium is removed. Cell cultures are incubated with 50 μl of MTT [3-(4,5-dimethylthiazol-2-yl)-2,5-diphenyl-tetrazolium bromide] reagent (1 mg/ml in Dulbecco's phosphate-buffered saline) for 4 hr at 37° C. The resultant purple formazan precipitate is solubilized with 200 μl of 0.04 N HCl in isopropanol. Absorbance is measured at a wavelength of 595 nm and at a reference wavelength of 655 nm using a Bio-Rad Model 3550 Microplate Reader. Preferably, all tests are run in duplicate for each dose level. […] The EZED50 computer program estimates the concentration of agent that inhibits cell growth by 50% as compared to the control cells. This is termed the IC50 and is determined by curve fitting test data using the following four logistic equation. [formula]
If testing concentrations are properly selected (i.e., no or little growth inhibition at low concentrations and complete inhibition at high concentrations), EZED50 program fits the data extremely well and estimates the IC50 value accurately. […] In these instances, the data could be re-analyzed by fixing the Amax value.
In this case, the IC50 could be estimated more accurately if both the Amax and Amin values are fixed. Although it may be feasible to estimate IC50 value by fixing Amax and/or Amax and Amin without repeating the experiment, the best way to determine the IC50 accurately is to decrease or increase the concentrations of the test agent and repeat the test.
Inhibitory assay testing is also used to determine enhanced therapeutic effects from combining A3 receptor antagonists with other tumor inhibiting agents. The inhibitory cell growth assays are run with and without selected concentrations of A3 receptor antagonists. An enhanced therapeutic effect is present when the IC50 of the tumor inhibiting agent is lower with the A3 receptor antagonist.
Quantitatively, the enhancement factor (EF) is calculated by dividing the IC50 value of the tumor inhibiting agent for a tumor cell line by the IC50 value of the agent with A3 receptor antagonist for the same cell line: [formula]
The cells are cultured in a T25 Falcon Tissue Culture flask in a humidified incubator at 37° C. with 5% CO2-95% air. The cells are sub-cultured twice a week.

PBMC blasts = experiment: Flow cytometry cell cycle analysis, PBMC blasts; type: cell-based; settings: Homo sapiens, + MRE3008F20 10 μM, read-out: EC50 (G2/M accumulation)
Procedure: For multi-drug resistance testing, A375 and NCTC2544 cells are grown adherently and maintained in DMEM and EMEM medium, respectively, containing 10% fetal calf serum, penicillin (100 U/ml), streptomycin (100 μg/ml), L-glutamine (2 mM) at 37° C. in 5% CO2/95% air. HeL023 and Jurkat were grown in RPMI-1640 medium, containing 10% fetal calf serum, penicillin (100 U/ml), streptomycin (100 μg/ml), L-glutamine (2 mM) at 37° C. in 5% CO2/95% air. Cells are passaged two or three times weekly at a ratio between 1:5 and 1:10. Lymphocytes were isolated from buffy coats kindly provided by the Blood Bank of the University Hospital of Ferrara. Blood donated by healthy volunteers, after informed consent for research was obtained. Lymphocytes were isolated by density gradient centrifugation (Ficoll/Histopaque 1.077 g/ml). […]
Flow Cytometry Analysis: A375 and NCTC2544 adherent cells were trypsinized, mixed with floating cells, washed with PBS and permeabilised in 70% (vol/vol) ethanol/PBS solution at 4° C. for at least 24 hours. […] Cells were analysed by FACScan (Becton-Dickinson) and the content of DNA was evaluated by the Cell-LISYS program (Becton-Dickinson). Cell distribution among cell cycle phases and apoptotic cells was evaluated as previously described (Secchiero et al., 2001). […]

A375 cells [6] = experiment: Flow cytometry cell cycle (G2/M) and apoptosis (sub-G1) analysis, A375; type: cell-based, human; settings: A375, DMSO (no antagonist)
Procedure: Flow Cytometry Analysis: A375 and NCTC2544 adherent cells were trypsinized, mixed with floating cells, washed with PBS and permeabilised in 70% (vol/vol) ethanol/PBS solution at 4° C. for at least 24 hours. Jurkat, HeL023 and PBMC cells were centrifuged for 10 minutes at 1000×g. The cell pellet was then resuspended and permeabllised in 70% (vol/vol) ethanol/PBS solution at 4° C. for at least 24 hours. The cells were washed with PBS and the DNA was stained with a PBS solution, containing 20 μg/ml of propidium iodide and 100 μg/ml of RNAse, at room temperature for 30 minutes. Cells were analysed by FACScan (Becton-Dickinson) and the content of DNA was evaluated by the Cell-LISYS program (Becton-Dickinson). Cell distribution among cell cycle phases and apoptotic cells was evaluated as previously described (Secchiero et al., 2001). Briefly, the cell cycle distribution is shown as the percentage of cells containing 2n (G1 phase), 4n (G2 and M phases), 4n>x>2n. DNA amount (S phase) judged by propidium iodide staining. The apoptotic population is the percentage of cells with DNA content lower than 2n.
After 24 hours, cells were collected for flow cytometry analysis. PD 98059 was used at 20 uM as an inhibitor of MEK to prevent MEK-1 activation. […]
EC50 values were obtained by analysing G2/M accumulation dose response curve. ECMAX values were obtained by analysing sub-G1 accumulation dose response curve. Paclitaxel values have units of ng/ml.

A375 cells [7] = experiment: Colony formation assay of A375 cells; type: cell-based, human; settings: paclitaxel (0.75 μg/ml) alone, 7 days
Procedure: FIG. 2 illustrates colony formation assay of A375 cells. Cells were treated with different drugs and colonies were counted after 7 days. The values represent the mean±SEM of four independent experiments. […] Analysis was by ANOVA followed by Dunnett's test.
Control plates received the same volume of DMSO alone. After 7 days of growth at 37° C. in humidified atmosphere containing 5% CO2, the cells were fixed with absolute methanol for 5′ and stained with 1/10 Giemsa/phosphate-buffered saline (PBS) staining solution for 10 minutes. Staining solution was removed and colonies of greater than 30 cells were scored as survivors. For each treatment, six individual wells were scored.

[8] = enhancement of paclitaxel IC50, A3 antagonist at 0.5 μg/ml

Compound: CN(C)c1ccc(NC(=O)Nc2nc3nn(C)cc3c3nc(-c4ccco4)nn23)cc1 [IL-11, N-1-(4-dimethylamino-phenyl)-N′-5-[8-methyl-2-(2-furyl)-pyrazolo[4,3-e]1,2,4-triazolo[1,5-c]pyrimidine]-urea]
- Enhancement Factor ([1]; enhancement of docetaxel IC50): 1.9
- Enhancement Factor ([1]; enhancement of irinotecan HCL IC50): 1.9
- Enhancement Factor ([1]; enhancement of paclitaxel IC50): 4.2
- Enhancement Factor ([1]; enhancement of vinblastine IC50): 1.6
- Ki [2]: > 10 µM
- Ki [3]: > 10 µM
- Enhancement Factor ([4]; enhancement of docetaxel IC50): 1.4
- Enhancement Factor ([4]; enhancement of paclitaxel IC50): 1.8
- Enhancement Factor ([5]; enhancement of docetaxel IC50, A3 antagonist at 0.05 μg/ml): 6.4
- Enhancement Factor ([5]; enhancement of doxorubicin IC50, A3 antagonist at 0.5 μg/ml): 1.2
- Enhancement Factor ([5]; enhancement of irinotecan IC50, A3 antagonist at 0.5 μg/ml): 1.1
- Enhancement Factor [5, 8]: 2.5
- Enhancement Factor (Human Melanoma A375; enhancement of docetaxel IC50, A3 antagonist at 0.5 μg/ml): 5.3
- Enhancement Factor (Human Melanoma A375; enhancement of docetaxel IC50, A3 antagonist at 5 μg/ml): 6.5
- Enhancement Factor (Human Melanoma A375; [8]): 3.1
- Enhancement Factor (Human Melanoma A375; enhancement of paclitaxel IC50, A3 antagonist at 5 μg/ml): 9.6

Compound: CC(=O)O[C@H]1C(=O)[C@@]2(C)[C@H]([C@H](OC(=O)c3ccccc3)[C@]3(O)C[C@H](OC(=O)[C@H](O)[C@@H](NC(=O)c4ccccc4)c4ccccc4)C(C)=C1C3(C)C)[C@]1(OC(C)=O)CO[C@@H]1C[C@@H]2O [paclitaxel]
- EC50 (PBMC blasts): 5.3 ± 0.6 ng/mL
- ECMAX (concentration exerting maximal apoptosis, sub-G1) (A375 cells [6]): 6.00 ± 0.63 ng/mL
- EC50 (A375 cells [6]; Homo sapiens, A-375, 24 h, read-out: EC50 (G2/M accumulation)): 16.6 ± 2 ng/mL (≈ 0.0194 µM)
- colony formation, % of DMSO control (A375 cells [7]): 64%
- IC50 (Human Melanoma A375; + IL-11 (5 μg/ml)): 0.00046 µg/mL
- IC50 (Human Melanoma A375; + MRE3008F20 (10 μg/ml)): 0.00059 µg/mL
